Assay results taken from patent US9765091B2, “Tetrahydropyrazolo [3,4-b] azepine derivatives and their use as allosteric modulators of metabotropic glutamate receptors” (Addex Pharma S.A., priority 2010, dated 2017).

Columns and labels:
human mGluR4 = molecular target: T1, human mGluR4 (Homo sapiens, UniProt Q14833); assay: Fluorescent cell based Ca2+ mobilization assay (FLIPR) on HEK-293 cells expressing human mGluR4; conditions: positive allosteric modulation, HEK-293 cells expressing hmGluR4, stimulated by EC25 glutamate; mean of at least three independent experiments in duplicate; read-out: Ca^2+ Flux* (mean EC50)
T1 construct: expressed in transfected cells
Excerpt: mGluR4 Assay on HEK-Expressing Human mGluR4
The compounds of the present invention are positive allosteric modulators of mGluR4 receptor. Their activity was examined on recombinant human mGluR4a receptors by detecting changes in intracellular Ca^2+ concentration, using the fluorescent Ca^2+-sensitive dye Fluo4-(AM) and a Fluorometric Imaging Plate Reader (FLIPR, Molecular Devices, Sunnyvale, Calif.).
The cDNA encoding the human metabotropic glutamate receptor (hmGluR4), (accession number NM_000841.1, NCBI Nucleotide database browser), was subcloned into an expression vector containing also the hygromycin resistance gene. In parallel, the cDNA encoding a G protein allowing redirection of the activation signal to intracellular calcium flux was subcloned into a different expression vector containing also the puromycin resistance gene. Transfection of both these vectors into HEK293 cells with PolyFect reagent (Qiagen) according to supplier's protocol, and hygromycin and puromycin treatment allowed selection of antibiotic resistant cells which had integrated stably one or more copies of the plasmids. Positive cellular clones expressing hmGluR4 were identified in a functional assay measuring changes in calcium fluxes in response to glutamate or selective known mGluR4 orthosteric agonists and antagonists. HEK-293 cells expressing hmGluR4 were maintained in media containing DMEM, dialyzed Fetal Calf Serum (10%), Glutamax™ (2 mM), Penicillin (100 units/mL), Streptomycin (100 μg/mL), Geneticin (100 μg/mL) and Hygromycin-B (40 μg/mL) and puromycin (1 μg/mL) at 37° C./5% CO2.
Human mGluR4 HEK-293 cells were plated out 24 hours prior to FLIPR^384 assay in black-walled, clear-bottomed, poly-L-ornithine-coated 384-well plates at a density of 25,000 cells/well in a glutamine/glutamate free DMEM medium containing foetal bovine serum (10%), penicillin (100 units/mL) and streptomycin (100 μg/mL) at 37° C./5% CO2.
On the day of the assay, the medium was aspirated and the cells were loaded with a 3 μM solution of Fluo4-AM (LuBioScience, Lucerne, Switzerland) in 0.03% pluronic acid. After 1 hour at 37° C./5% CO2, the non incorporated dye was removed by washing cell plate with the assay buffer and the cells were left in the dark at room temperature for […] before testing. All assays were performed in a pH 7.4 buffered-solution containing 20 mM HEPES, 143 mM NaCl, 6 mM KCl, 1 mM MgSO4, 1 mM CaCl2, 0.125 mM sulfapyrazone and 0.1% glucose.
After 10 s of basal fluorescence recording, various concentrations of the compounds of the invention were added to the cells. Changes in fluorescence levels were first monitored for 180 s in order to detect any agonist activity of the compounds. Then the cells were stimulated by an EC25 glutamate concentration for an additional 110 s in order to measure enhancing activities of the compounds of the invention. EC25 glutamate concentration is the concentration giving 25% of the maximal glutamate response.
The concentration-response curves of representative compounds of the present invention were generated using the Prism GraphPad software (Graph Pad Inc, San Diego, USA). The curves were fitted to a four-parameter logistic equation: (Y=Bottom+(Top−Bottom)/(1+10^((Log EC50−X)*Hill Slope) allowing the determination of EC50 values.
The Table 4 below represents the mean EC50 obtained from at least three independent experiments of selected molecules performed in duplicate.

T1 sequence (Q14833 33-912): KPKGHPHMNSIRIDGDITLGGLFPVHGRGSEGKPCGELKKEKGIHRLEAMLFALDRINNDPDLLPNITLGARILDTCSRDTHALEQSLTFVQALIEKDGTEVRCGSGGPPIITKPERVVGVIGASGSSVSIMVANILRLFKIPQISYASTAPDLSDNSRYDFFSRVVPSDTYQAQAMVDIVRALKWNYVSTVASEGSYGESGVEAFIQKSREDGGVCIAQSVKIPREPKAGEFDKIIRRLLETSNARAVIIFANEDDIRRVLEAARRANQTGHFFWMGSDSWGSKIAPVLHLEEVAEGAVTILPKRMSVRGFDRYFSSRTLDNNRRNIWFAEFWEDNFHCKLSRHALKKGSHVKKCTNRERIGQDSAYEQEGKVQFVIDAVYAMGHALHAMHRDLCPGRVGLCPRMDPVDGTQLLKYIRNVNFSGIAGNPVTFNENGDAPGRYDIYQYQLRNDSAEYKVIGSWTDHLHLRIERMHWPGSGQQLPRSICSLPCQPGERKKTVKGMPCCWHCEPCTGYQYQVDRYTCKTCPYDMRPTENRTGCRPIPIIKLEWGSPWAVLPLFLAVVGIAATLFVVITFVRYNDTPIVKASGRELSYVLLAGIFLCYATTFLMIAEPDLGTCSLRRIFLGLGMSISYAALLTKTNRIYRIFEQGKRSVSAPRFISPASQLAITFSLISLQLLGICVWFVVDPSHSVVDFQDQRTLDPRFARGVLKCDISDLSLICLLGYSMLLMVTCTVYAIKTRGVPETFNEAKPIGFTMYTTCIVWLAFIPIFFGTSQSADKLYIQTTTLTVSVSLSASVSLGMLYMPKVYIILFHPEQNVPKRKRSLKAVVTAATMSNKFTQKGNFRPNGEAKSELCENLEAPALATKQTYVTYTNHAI

EC50 (human mGluR4) [nM]	melting point [°C]	SMILES
100 to 1000	218	COCCN1CCc2sc(Nc3ccc(F)cn3)nc2-c2c[nH]nc21 [Compound 1-15, N-(5-Fluoropyridin-2-yl)-6-(2-methoxyethyl)-4,5,6,8-tetrahydropyrazolo[3,4-b]thiazolo[4,5-d]azepin-2-amine]
< 100	247	Cc1ccnc(Nc2nc3c(s2)CCN(C(C)C)c2n[nH]cc2-3)n1 [Compound 1-5, 6-Isopropyl-N-(4-methylpyrimidin-2-yl)-4,5,6,8-tetrahydropyrazolo[3,4-b]thiazolo[4,5-d]azepin-2-amine]
< 100	292	Cc1ccnc(Nc2nc3c(s2)CCN(C)c2n[nH]cc2-3)n1 [Compound 1-1, 6-Methyl-N-(4-methylpyrimidin-2-yl)-4,5,6,8-tetrahydropyrazolo[3,4-b]thiazolo[4,5-d]azepin-2-amine]
< 100	291	Cc1nc(Nc2nc3c(s2)CCN(C)c2n[nH]cc2-3)ns1 [Compound 1-8, 6-Methyl-N-(5-methyl-1,2,4-thiadiazol-3-yl)-4,5,6,8-tetrahydropyrazolo[3,4-b]thiazolo[4,5-d]azepin-2-amine]
< 100	203	COCCN1CCc2sc(Nc3cccc(F)n3)nc2-c2c[nH]nc21 [Compound 1-14, N-(6-Fluoropyridin-2-yl)-6-(2-methoxyethyl)-4,5,6,8-tetrahydropyrazolo[3,4-b]thiazolo[4,5-d]azepin-2-amine]
< 100	312	Fc1cnc(Nc2nc3c(s2)CCNc2n[nH]cc2-3)nc1 [Compound 1-25, N-(5-Fluoropyrimidin-2-yl)-4,5,6,8-tetrahydropyrazolo[3,4-b]thiazolo[4,5-d]azepin-2-amine]
< 100	306	CCN1CCc2sc(Nc3ncc(F)cn3)nc2-c2c[nH]nc21 [Compound 1-34, 6-Ethyl-N-(5-fluoropyrimidin-2-yl)-4,5,6,8-tetrahydropyrazolo[3,4-b]thiazolo[4,5-d]azepin-2-amine]
< 100	280	Cc1cc(CN2CCc3sc(Nc4ncc(F)cn4)nc3-c3c[nH]nc32)on1 [Compound 1-35, N-(5-Fluoropyrimidin-2-yl)-6-((3-methylisoxazol-5-yl)methyl)-4,5,6,8-tetrahydropyrazolo[3,4-b]thiazolo[4,5-d]azepin-2-amine]
100 to 1000	285	Cc1cccc(Nc2nc3c(s2)CCN(CC2CC2)c2n[nH]cc2-3)n1 [Compound 1-39, 6-(Cyclopropylmethyl)-N-(6-methylpyridin-2-yl)-4,5,6,8-tetrahydropyrazolo[3,4-b]thiazolo[4,5-d]azepin-2-amine]
< 100		Fc1cnc(Nc2nc3c(s2)CCN(CC2CCCC2)c2n[nH]cc2-3)nc1 [Compound 1-36, 6-(Cyclopentylmethyl)-N-(5-fluoropyrimidin-2-yl)-4,5,6,8-tetrahydropyrazolo[3,4-b]thiazolo[4,5-d]azepin-2-amine]
< 100		CS(=O)(=O)CCN1CCc2sc(Nc3ncc(F)cn3)nc2-c2c[nH]nc21 [Compound 1-28, N-(5-Fluoropyrimidin-2-yl)-6-(2-(methylsulfonyl)ethyl)-4,5,6,8-tetrahydropyrazolo[3,4-b]thiazolo[4,5-d]azepin-2-amine]
< 100		COCCN1CCc2sc(Nc3cccc(C)n3)nc2-c2c[nH]nc21 [Compound 1-13, 6-(2-Methoxyethyl)-N-(6-methylpyridin-2-yl)-4,5,6,8-tetrahydropyrazolo[3,4-b]thiazolo[4,5-d]azepin-2-amine]
< 100		CC(C)OCCN1CCc2sc(Nc3ncc(F)cn3)nc2-c2c[nH]nc21 [Compound 1-43, N-(5-Fluoropyrimidin-2-yl)-6-(2-isopropoxyethyl)-4,5,6,8-tetrahydropyrazolo[3,4-b]thiazolo[4,5-d]azepin-2-amine]
< 100	233	COCC(C)N1CCc2sc(Nc3nccc(C)n3)nc2-c2c[nH]nc21 (stereo not drawn) [Compound 1-11, 6-(1-Methoxypropan-2-yl)-N-(4-methylpyrimidin-2-yl)-4,5,6,8-tetrahydropyrazolo[3,4-b]thiazolo[4,5-d]azepin-2-amine]
100 to 1000	297	Fc1cccc(Nc2nc3c(s2)CCN(CC2CC2)c2n[nH]cc2-3)n1 [Compound 1-40, 6-(Cyclopropylmethyl)-N-(6-fluoropyridin-2-yl)-4,5,6,8-tetrahydropyrazolo[3,4-b]thiazolo[4,5-d]azepin-2-amine]
< 100		Fc1cnc(Nc2nc3c(s2)CCN(Cc2ccncc2)c2n[nH]cc2-3)nc1 [Compound 1-27, N-(5-Fluoropyrimidin-2-yl)-6-(pyridin-4-ylmethyl)-4,5,6,8-tetrahydropyrazolo[3,4-b]thiazolo[4,5-d]azepin-2-amine]
< 100		Fc1cnc(Nc2nc3c(s2)CCN(C2CCOC2)c2n[nH]cc2-3)nc1 (stereo not drawn) [Compound 1-31, N-(5-Fluoropyrimidin-2-yl)-6-(tetrahydrofuran-3-yl)-4,5,6,8-tetrahydropyrazolo[3,4-b]thiazolo[4,5-d]azepin-2-amine]
< 100		Fc1cnc(Nc2nc3c(s2)CCN(Cc2ccccn2)c2n[nH]cc2-3)nc1 [Compound 1-26, N-(5-Fluoropyrimidin-2-yl)-6-(pyridin-2-ylmethyl)-4,5,6,8-tetrahydropyrazolo[3,4-b]thiazolo[4,5-d]azepin-2-amine]
< 100	271	CC(C)c1nc(CN2CCc3sc(Nc4ncc(F)cn4)nc3-c3c[nH]nc32)co1 [Compound 1-24, N-(5-Fluoropyrimidin-2-yl)-6-((2-isopropyloxazol-4-yl)methyl)-4,5,6,8-tetrahydropyrazolo[3,4-b]thiazolo[4,5-d]azepin-2-amine]
< 100		CCN1CCc2sc(Nc3nccc(C)n3)nc2-c2c[nH]nc21 [Compound 1-3, 6-Ethyl-N-(4-methylpyrimidin-2-yl)-4,5,6,8-tetrahydropyrazolo[3,4-b]thiazolo[4,5-d]azepin-2-amine]
100 to 1000		Cc1nc(Nc2nc3c(s2)CCN(C)c2n[nH]cc2-3)ncc1F [Compound 1-9, N-(5-Fluoro-4-methylpyrimidin-2-yl)-6-methyl-4,5,6,8-tetrahydropyrazolo[3,4-b]thiazolo[4,5-d]azepin-2-amine]
< 100	275	Cc1noc(C)c1CN1CCc2sc(Nc3ncc(F)cn3)nc2-c2c[nH]nc21 [Compound 1-23, 6-((3,5-Dimethylisoxazol-4-yl)methyl)-N-(5-fluoropyrimidin-2-yl)-4,5,6,8-tetrahydropyrazolo[3,4-b]thiazolo[4,5-d]azepin-2-amine]
< 100		Fc1cnc(Nc2nc3c(s2)CCN(CC2CCCO2)c2[nH]ncc2-3)nc1 (stereo not drawn) [Compound 1-48, N-(5-Fluoropyrimidin-2-yl)-6-((tetrahydrofuran-2-yl)methyl)-4,5,6,7-tetrahydropyrazolo[3,4-b]thiazolo[4,5-d]azepin-2-amine]
